Measurements as given in patent US20250084091A1, “INHIBITORS OF SARS-COV-2” (The Texas A&M University System, priority 2021, published 2025).
Read-outs that look alike come from different tables or passages of the source.

Experiments:
[1] = Uninfected host cell cytotoxicity counter screen; assay type: cell-based; conditions: human
Method: Uninfected host cell cytotoxicity counter screen: HeLa-ACE2 cells were maintained as described for the infection assay and seeded in the assay-ready plates at 400 cells/well. Plates were incubated for 24 hours at 37° C. 5% CO2. To assess cell viability, the Image-iT DEAD green reagent was used according to manufacturer instructions. Cells were fixed with 4% paraformaldehyde, and counterstained with DAPI. Fixed cells are imaged as described above.
Viral replication data analysis: Data from the primary screen and the host cell cytotoxicity screen are normalized to neutral (DMSO) […] inhibitor controls (2.5 μM Remdesivir for antiviral effect and 10 μM puromycin for infected host cell toxicity). For the uninfected host cell cytotoxicity counter-screen 40 μM puromycin is used as the positive control. Concentration response experiments will be tested in triplicate.

[2] = test system: SARS-CoV-2 (strain USA-WA1/2020); experiment: microbe, parasite or virus in culture; assay type: cell-based
HeLa-ACE2 cells = experiment: cells; assay type: cell-based; conditions: Table 2, total cell count in infected plates
[3] = target: SARS-CoV-2 main protease (Mpro) (Severe acute respiratory syndrome coronavirus 2, UniProt P0DTD1); experiment: biochemical
[4] = Severe acute respiratory syndrome coronavirus 2, HeLa-ACE2, read-out: CoV-2 HeLa EC50, Table 2, SARS-CoV-2 infected HeLa-ACE2 cells
[5] = Severe acute respiratory syndrome coronavirus 2, Table 2, SARS-CoV-2 infected HeLa-ACE2 cells, read-out: CoV-2 HeLa EC50
[6] = Table 3, select example compounds against mpro, read-out: Enzyme IC50
[7] = Severe acute respiratory syndrome coronavirus 2, HeLa, Table 3, read-out: CoV-2 HeLa EC50

SMILES: O=C(NC1CN(C(c2ccccc2)c2ccccc2)C1)c1cccnc1 [AA-603, N-(1-benzhydrylazetidin-3-yl)nicotinamide]
- CC50 at 24 h [1]: > 39800 nM
- EC50 [2, 4]: > 9610 nM
- EC50 (HeLa-ACE2 cells): > 9610 nM

SMILES: O=C(c1cnc(Cl)c(Cl)c1)N1CCN(C(c2ccccc2)c2ccccc2)CC1 [AA-608, (4-benzhydrylpiperazin-1-yl)(5,6-dichloropyridin-3-yl)methanone]
- CC50 at 24 h [1]: > 39800 nM
- EC50 [2, 5]: 1740 nM
- EC50 (HeLa-ACE2 cells): 863 nM

SMILES: Cc1ccc(C(=O)N2CCN(C(c3ccccc3)c3ccccc3)CC2)cn1 [AA-612, (4-benzhydrylpiperazin-1-yl)(6-methylpyridin-3-yl)methanone]
- CC50 at 24 h [1]: > 39800 nM
- EC50 [2, 5]: 1740 nM
- EC50 (HeLa-ACE2 cells): 863 nM

SMILES: Cc1cncc(C(=O)N2CC3CC(C2)N3C(c2ccccc2)c2ccccc2)c1 [AA-614, (6-benzhydryl-3,6-diazabicyclo[3.1.1]heptan-3-yl)(5-methylpyridin-3-yl)methanone]
- CC50 at 24 h ([1]; Table 2, uninfected cells, 24 hours, read-out: Uninfected HeLa-ACE2 CC50): > 39800 nM
- EC50 [2, 4]: > 9610 nM
- EC50 (HeLa-ACE2 cells): > 9610 nM

SMILES: Cc1cncc(CN2CCN(C(c3ccccc3)c3ccccc3)CC2=O)c1 [AA-645, 4-benzhydryl-1-((5-methylpyridin-3-yl)methyl)piperazin-2-one]
- CC50 at 24 h [1]: > 39800 nM
- EC50 [2, 4]: > 9610 nM
- EC50 (HeLa-ACE2 cells): > 9610 nM

SMILES: Cc1cncc(CN2CCN(C(c3ccccc3)c3ccccc3)CC2=O)c1 [AA-646, 4-benzhydryl-1-((5-methylpyridin-3-yl)methyl)piperazin-2-one]
- IC50 ([3]; Table 2, read-out: Enzyme IC50): 6100 nM
- EC50 [2, 5]: 5200 nM

SMILES: O=C(c1cncc2cc[nH]c12)N1CC2CCC(C1)N2C(c1cccc(F)c1)c1cccc(F)c1 [AA-663, [8-[bis(3-fluorophenyl)methyl]-3,8-diazabicyclo[3.2.1]octan-3-yl]-(1H-pyrrolo[3,2-c]pyridin-7-yl)methanone]
- IC50 ([3]; Enzyme IC50, Table 2): 38 nM
- IC50 ([3]; Enzyme IC50, Table 3, select example compounds against mpro): 14 nM
- EC50 ([2]; Severe acute respiratory syndrome coronavirus 2, HeLa, read-out: CoV-2 HeLa EC50, Table 3): 63 nM

SMILES: O=C(c1cncc2cc[nH]c12)N1CCC(=C(c2cccc(F)c2)c2cccc(F)c2)CC1 [MKP-1355, (4-(bis(3-fluorophenyl)methylene)piperidin-1-yl)(1H-pyrrolo[3,2-c]pyridin-7-yl)methanone]
- IC50 ([3]; Table 2, read-out: Enzyme IC50): 28 nM
- IC50 [3, 6]: 12 nM
- EC50 [2, 7]: 94 nM

SMILES: O=C(c1cncc2cc[nH]c12)N1CCN(C(c2cccc(F)c2)c2cccc(F)c2)CC1 [MKP-1371, (4-(bis(3-fluorophenyl)methyl)piperazin-1-yl)(1H-pyrrolo[3,2-c]pyridin-7-yl)methanone]
- IC50 ([3]; Table 2, read-out: Enzyme IC50): 25 nM
- IC50 [3, 6]: 13 nM
- EC50 [2, 7]: 47 nM

SMILES: Cc1cncc(C(=O)N2CCC(=C(c3ccccc3)C3CCCCC3)CC2)c1 [MKP-1421, (4-(cyclohexyl(phenyl)methylene)piperidin-1-yl)(5-methylpyridin-3-yl)methanone]
- IC50 ([3]; Table 2, read-out: Enzyme IC50): 920 nM

SMILES: Cc1cncc(C(=O)N2CCC(=C(c3ccccn3)c3ccccn3)CC2)c1 [MKP-1422, (4-(di(pyridin-2-yl)methylene)piperidin-1-yl)(5-methylpyridin-3-yl)methanone]
- IC50 ([3]; Table 2, read-out: Enzyme IC50): 110 nM

SMILES: COc1ccccc1C(=C1CCN(C(=O)c2cncc(C)c2)CC1)c1ccccn1 [MKP-1440, (4-((2-methoxyphenyl)(pyridin-2-yl)methylene)piperidin-1-yl)(5-methylpyridin-3-yl)methanone]
- IC50 ([3]; Table 2, read-out: Enzyme IC50): 170 nM

SMILES: Cc1cncc(C(=O)N2CCN(C(c3ccccc3)c3ccncc3)CC2)c1 (stereo not drawn) [MKP-1442, (5-methylpyridin-3-yl)(4-(phenyl(pyridin-4-yl)methyl)piperazin-1-yl)methanone]
- IC50 ([3]; Table 2, read-out: Enzyme IC50): 1600 nM

SMILES: O=C1CN(C(=O)N2CCN(C3c4ccccc4CS(=O)(=O)c4ccccc43)CC2)c2ccccc2N1 (stereo not drawn) [NZ-812, 4-[4-(5,5-dioxo-6,11-dihydrobenzo[c][1]benzothiepin-11-yl)piperazine-1-carbonyl]-1,3-dihydroquinoxalin-2-one]
- IC50 ([3]; Table 2, read-out: Enzyme IC50): 550 nM

SMILES: CS(=O)(=O)c1ccccc1C(c1ccccc1)N1CCN(C(=O)c2cncc3cc[nH]c23)CC1 (stereo not drawn) [NZ-814, [4-[(2-methylsulfonylphenyl)-phenyl-methyl]piperazin-1-yl]-(1H-pyrrolo[3,2-c]pyridin-7-yl)methanone]
- IC50 ([3]; Table 2, read-out: Enzyme IC50): 53 nM

SMILES: O=C1Nc2ccccc2C(N2CCN(C(=O)c3cncc4cc[nH]c34)CC2)c2ccccc21 (stereo not drawn) [NZ-815, 11-[4-(1H-pyrrolo[3,2-c]pyridine-7-carbonyl)piperazin-1-yl]-5,11-dihydrobenzo[c][1]benzazepin-6-one]
- IC50 ([3]; Table 2, read-out: Enzyme IC50): 30 nM
- IC50 [3, 6]: 30 nM
- EC50 [2, 7]: 97 nM

SMILES: CS(=O)(=O)c1ccccc1C(c1cccc(F)c1)N1CCN(C(=O)c2cncc3cc[nH]c23)CC1 (stereo not drawn) [NZ-816, [4-[(3-fluorophenyl)-(2-methylsulfonylphenyl)methyl]piperazin-1-yl]-(1H-pyrrolo[3,2-c]pyridin-7-yl)methanone]
- IC50 ([3]; Table 2, read-out: Enzyme IC50): 30 nM
- IC50 [3, 6]: 17 nM
- EC50 [2, 7]: 40 nM

SMILES: Cc1cncc(C(=O)N2CCN(C(c3cccc(F)c3)c3ccccc3S(C)(=O)=O)CC2)c1 (stereo not drawn) [NZ-817, [4-[(3-fluorophenyl)-(2-methylsulfonylphenyl)methyl]piperazin-1-yl]-(5-methyl-3-pyridyl)methanone]
- IC50 ([3]; Table 2, read-out: Enzyme IC50): 33 nM

SMILES: Cc1cc(C(=O)N2CCN(C3c4ccccc4CS(=O)(=O)c4ccccc43)CC2)cnc1N (stereo not drawn) [NZ-819, (6-amino-5-methyl-3-pyridyl)-[4-(5,5-dioxo-6,11-dihydrobenzo[c][1]benzothiepin-11-yl)piperazin-1-yl]methanone]
- IC50 ([3]; Table 2, read-out: Enzyme IC50): 20000 nM

SMILES: CC(=O)Nc1ncc(C(=O)N2CCN(C3c4ccccc4CS(=O)(=O)c4ccccc43)CC2)cc1C (stereo not drawn) [NZ-820, N-[5-[4-(5,5-dioxo-6,11-dihydrobenzo[c][1]benzothiepin-11-yl)piperazine-1-carbonyl]-3-methyl-2-pyridyl]acetamide]
- IC50 ([3]; Table 2, read-out: Enzyme IC50): > 80000 nM

SMILES: O=C(c1cncc2cn[nH]c12)N1CCC(=C2c3ccccc3CS(=O)(=O)c3ccccc32)CC1 [NZ-821, [4-(5,5-dioxo-6H-benzo[c][1]benzothiepin-11-ylidene)-1-piperidyl]-(1H-pyrazolo[4,3-c]pyridin-7-yl)methanone]
- IC50 ([3]; Table 2, read-out: Enzyme IC50): 44 nM
- IC50 [3, 6]: 44 nM
- EC50 [2, 7]: 23 nM

SMILES: O=C(c1cncc2cn[nH]c12)N1CCN(C2c3ccccc3CS(=O)(=O)c3ccccc32)CC1 (stereo not drawn) [NZ-822, [4-(5,5-dioxo-6,11-dihydrobenzo[c][1]benzothiepin-11-yl)piperazin-1-yl]-(1H-pyrazolo[4,3-c]pyridin-7-yl)methanone]
- IC50 [3, 6]: 54 nM
- EC50 [2, 7]: 89 nM

SMILES: O=C1Nc2ccc(F)cc2C1CC(=O)N1CCN(C(c2ccccc2)c2ccccc2)CC1 (stereo not drawn) [PKJ-663, 3-(2-(4-benzhydrylpiperazin-1-yl)-2-oxoethyl)-5-fluoroindolin-2-one]
- IC50 ([3]; Table 2, read-out: Enzyme IC50): > 80000 nM

SMILES: Cc1cncc(C(=O)C2CCN(C(c3ccccc3)c3ccccc3)CC2=O)c1 (stereo not drawn) [PKJ-672, 1-benzhydryl-4-(5-methylnicotinoyl)piperidin-3-one]
- IC50 ([3]; Table 2, read-out: Enzyme IC50): 760 nM

SMILES: CC(C)(C)OC(=O)NCc1cncc(C(=O)N2CCN(C(c3ccccc3)c3ccccc3)CC2)c1 [PKJ-703, tert-butyl ((5-(4-benzhydrylpiperazine-1-carbonyl)pyridin-3-yl)methyl)carbamate]
- IC50 ([3]; Table 2, read-out: Enzyme IC50): 930 nM

SMILES: NCc1cncc(C(=O)N2CCN(C(c3ccccc3)c3ccccc3)CC2)c1 [PKJ-704, (5-(aminomethyl)pyridin-3-yl)(4-benzhydrylpiperazin-1-yl)methanone]
- IC50 ([3]; Table 2, read-out: Enzyme IC50): 1600 nM

SMILES: O=C(c1cnccc1Cl)N1CCN(C2c3ccccc3CCc3ccccc32)CC1 [ZS-331, (4-chloro-3-pyridyl)-[4-(2-tricyclo[9.4.0.03,8]pentadeca-1(11),3(8),4,6,12,14-hexaenyl)piperazin-1-yl]methanone]
- IC50 ([3]; Table 2, read-out: Enzyme IC50): 370 nM
